According to PMC9221546, “New Phenylglycinamide Derivatives with Hybrid Structure as Candidates for New Broad-Spectrum Anticonvulsants” (Cells, 2022):
Read-outs that look alike come from different tables or passages of the source.

Experiments:
[1] = PAMPA permeability (Pre-coated PAMPA Plate System Gentest); type: in vitro ADME
Description: Caffeine (CFN) and norfloxacin (NFX) were used as the high- and low-permeable references, respectively.

[2] = tested on: scPTZ-induced seizures in mice; assay: Subcutaneous pentylenetetrazole (scPTZ) seizure test; type: in vivo; settings: 100 mg/kg i.p., 0.5 h
Method: (§1) Adult male Albino Swiss mice that weighed between 22 and 26 g were used in the in vivo studies. They were housed under standardized housing conditions in colony cages and had free access to food as well as tap water. The animals were left to adapt under laboratory conditions for 7 days. All procedures involving animals and their care were performed in accordance with the current European Community and Polish legislation on animal experimentation.
(§2) In the initial screening studies, four mice per group were randomly assigned to each experimental group (each mouse was used only once). To evaluate the ED50 or TD50 values, 3–4 groups that consisted of eight animals were injected with various doses of tested compounds. The protective indexes (PIs) for the compounds that were investigated and reference ASDs were calculated by dividing the TD50 value, as determined in the chimney test (or rotarod test), by the respective ED50 value, as determined in the MES, scPTZ, or 6 Hz (32 mA or 44 mA) tests (PI = TD50/ED50). The PIs is a measure of the potential therapeutic window of the tested agent.
(§3) All substances were suspended in Tween 80 (1% aqueous solution) and administered i.p. as a single injection at a dose of 10 mL/kg. On each day of experimentation, fresh solutions were prepared. The results are summarized in Table S1 (screening data) and Table 2 (ED50, TD50, and PI values, see Section 3 Results and Discussion).
(§4) The detailed in vivo procedures are described elsewhere: the maximal electroshock seizure test (MES), the subcutaneous pentylenetetrazole seizure test (scPTZ), the 6 Hz psychomotor seizure model (32 mA and 44 mA), and the chimney test.
(§5) The basic animal seizure models such as the MES, 6 Hz (32 mA or 44 mA), and the scPTZ are still a standard in the discovery and development of new ASDs. In vivo screening approaches enable the identification of compounds with unidentified and potentially novel mechanisms of action besides substances with well-established pharmacodynamics. Bearing in mind the aforementioned facts, compounds 45–66 were initially studied in the MES test and in the 6 Hz seizure model (32 mA) after intraperitoneal (i.p.) administration at a screening dose of 100 mg/kg in mice at a time point of 0.5 h (the screening group consisted of four mice, the results obtained are summarized in Table S1). It should be stressed that the MES test is an experimental model of human tonic–clonic epilepsy as well as partial convulsions with or without secondary generalization, the 6 Hz model (32 mA) corresponds to human focal epilepsy, whereas the scPTZ test relates to human generalized absence or myoclonic seizures.

[3] = tested on: 6 Hz (32 mA) seizures in mice; assay: 6 Hz (32 mA) psychomotor seizure model; type: in vivo; settings: Mus musculus, ip; for responders at 100 mg/kg: 100 mg/kg i.p., 0.5 h
Method: as §1, §2, §3, §4, §5
(§6) We also established the median toxic doses (TD50) in the chimney test 0.5 h post i.p. administration of these compounds. Both the aforementioned parameters enabled the calculation of the protective indexes (PIs).

[4] = molecular target: T1, TRPV1 (VR1) (h) (Homo sapiens, UniProt Q8NER1); assay: TRPV1 (VR1) (h) antagonist effect functional assay; type: cell-based; settings: human recombinant CHO cells, read-out: % Inhibition of control agonist response, TRPV1 (antagonist effect)
T1 construct: host or cells: CHO
T1 sequence (Q8NER1 whole entry): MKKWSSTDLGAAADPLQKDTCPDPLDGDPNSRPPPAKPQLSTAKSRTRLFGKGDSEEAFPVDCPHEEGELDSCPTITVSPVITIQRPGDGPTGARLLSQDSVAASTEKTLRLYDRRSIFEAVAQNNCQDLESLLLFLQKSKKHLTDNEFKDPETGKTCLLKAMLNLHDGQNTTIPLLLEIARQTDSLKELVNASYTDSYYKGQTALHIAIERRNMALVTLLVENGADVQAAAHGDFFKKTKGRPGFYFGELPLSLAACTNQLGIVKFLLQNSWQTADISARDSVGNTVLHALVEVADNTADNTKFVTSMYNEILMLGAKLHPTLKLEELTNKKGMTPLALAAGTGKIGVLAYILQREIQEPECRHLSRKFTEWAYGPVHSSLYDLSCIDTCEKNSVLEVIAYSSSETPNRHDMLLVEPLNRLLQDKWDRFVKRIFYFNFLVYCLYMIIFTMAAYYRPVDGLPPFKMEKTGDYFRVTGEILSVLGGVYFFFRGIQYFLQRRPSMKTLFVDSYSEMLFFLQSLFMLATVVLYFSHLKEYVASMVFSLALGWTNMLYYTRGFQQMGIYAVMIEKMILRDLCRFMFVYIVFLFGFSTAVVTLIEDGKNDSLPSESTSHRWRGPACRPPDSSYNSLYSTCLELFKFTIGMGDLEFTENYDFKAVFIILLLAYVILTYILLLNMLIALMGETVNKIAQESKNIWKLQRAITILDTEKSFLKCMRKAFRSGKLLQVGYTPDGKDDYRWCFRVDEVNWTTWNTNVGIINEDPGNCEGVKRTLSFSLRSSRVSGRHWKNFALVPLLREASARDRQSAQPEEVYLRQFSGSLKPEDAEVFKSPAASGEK
Method: Binding/functional studies were carried out commercially in Eurofins Laboratories (Poitiers, France) and Eurofins Panlabs Discovery Services Taiwan, Ltd. (New Taipei City, Taiwan) using testing procedures that were reported previously (for details see Table S2).
Table S2. Radioligand binding and functional assays. […]
Assays were performed commercially in Eurofins Laboratories (Poitiers, France) or Eurofins Panlabs Discovery Services Taiwan, Ltd. (New Taipei City, Taiwan).
Table S3. In vitro TRPV1 channel antagonist activity for compounds 45–66 (concentration of 100 µM). […]
Cmpd % Inhibition of control Cmpd % Inhibition of control agonist responsea agonist responsea
*Source: human recombinant CHO cells. a Results showing activity higher than 50% are considered to represent […]
variability of the sign al around the control level. Assays were performed commercially in Eurofins Laboratories

[5] = tested on: MES-induced seizures in mice; assay: Maximal electroshock seizure (MES) test; type: in vivo
Method: as §1, §2, §3, §4, §5, §6

[6] = Chimney test (acute neurological deficit); settings: mouse, in vivo, ip, mice
Method: as §2, §3, §4
We also established the median toxic doses (TD50) in the chimney test 0.5 h post i.p. administration of these compounds. […]

Row | Compound | Pe (permeability coefficient) ± SD [1] | scPTZ screening: number of mice protected/number of mice tested [2] | responders at 100 mg/kg ([3]; four mice, read-out: protection in 6 Hz (32 mA) screening) | responders at 100 mg/kg ([3]; read-out: 6 Hz (32 mA) screening: number of mice protected/number of mice tested (converted)) | ED50 ([3]; mice, pretreatment time 0.5 h, (95% confidence limits)) | inhibition at 100 µM [4] | protection in MES screening ([5]; 100 mg/kg i.p., 0.5 h, four mice) | responders at 100 mg/kg ([5]; Mus musculus, ip, 100 mg/kg i.p., 0.5 h, read-out: MES screening: number of mice protected/number of mice tested (converted)) | ED50 ([5]; Mus musculus, ip, mice, pretreatment time 0.5 h, (95% confidence limits)) | TD50 at 0.5 h [6]
1 | Cn1c(=O)c2c(ncn2C)n(C)c1=O [CFN, Caffeine, reference compound] | 12.22 ± 0.94 10^−6 cm/s |  |  |  |  |  |  |  |  | 
2 | CC(=O)NC(C(=O)N1CCN(c2ccccc2)CC1)c1ccccc1 (stereo not shown) [Compound 45, N-(2-oxo-1-phenyl-2-(4-phenylpiperazin-1-yl)ethyl)acetamide] |  | 0/4 | 75% | 75% | 81.6 mg/kg | 36.1% | 75% | 75% | 125 mg/kg | 268 mg/kg
